{
  "source": "patent US20130108562A1",
  "about": "“Cosmetic Composition Containing Oligopeptides” (Cognis IP Management GmbH, priority 2010, published 2013)",
  "key": {"[1]": {"system": "epithelial cells from rabbit cornea", "details": "Hara et al., Exp Eye Res, 2001; cited from earlier work"}, "injured rabbit cornea": {"system": "injured rabbit cornea", "details": "Hara et al., Exp Eye Res, 2001; cited from earlier work"}, "collagen type I": {"system": "collagen type I", "experiment": "Collagen type I expression by immunocytochemistry in human dermal fibroblasts", "format": "cell-based", "method": "The peptide Acetyl-Val-Leu-Leu-Lys was incubated on human dermal fibroblasts cultured in vitro and the expression of the collagen type I was measured using an immunocytochemistry (ICC) method.\nThe human dermal fibroblasts were cultured within growth medium enriched with Foetal Calf Serum (FCS) at 10% and incubated for 2 days at 37° C. Then the growth medium was exchanged for a standard medium containing sodium ascorbyl at 5 μg/ml with FCS at 1% and with or without the Acetyl-Val-Leu-Leu-Lys peptide at 5.1 mg/ml. A positive control condition with sodium ascorbyl at 20 μg/ml was performed. Cells were incubated for 72 hours at 37° C. with the peptide. Cultured human dermal fibroblasts were fixed by acetone for 10 minutes at −20° C. and incubated for 1 hour at room temperature with a primary antibody against collagen type I [Abcam] diluted at 1/250. Fluorescein isothiocyanate (FITC) labelled secondary antibody [CliniSciences, France] was used for revelation. The obtained immuno-staining was observed using a confocal laser scanning microscope [TCS SPE, Leica, France] and quantified by an image analyzer [Quantimet Q5001W, Leica, France]. The staining occupation was evaluated. The results were presented as a mean+/−SEM (Standard Error of Mean) from 6 measures."}, "[2]": {"system": "collagen type XIV gene (COL14A1)", "experiment": "COL14A1 mRNA level by qRT-PCR in human dermal fibroblasts", "format": "cell-based", "details": "summary of Table 2", "method": "The peptide Acetyl-Val-Leu-Leu-Lys was incubated on human dermal fibroblasts cultured in vitro and the expression of the collagen type XIV gene (COL14A1) was measured using a quantitative reverse-transcription and polymerase chain reaction (qRT-PCR) method.\n(§1) The human dermal fibroblasts were cultured within growth medium enriched with FCS at 10% and incubated for 1 day at 37° C. Then the growth medium was exchanged for a standard medium without FCS but with or without the Acetyl-Val-Leu-Leu-Lys peptide at 1.0 μg/ml. Cells were then incubated for 24 hours, 48 hours or 72 hours at 37° C. before extraction of total RNA. The level of COL14A1 mRNAs in the different conditions was evaluated comparatively to the level of EEF1A1 mRNA as housekeeping gene (qRT-PCR method) for each condition.\nThe results were calculated through the level of COL14A1 mRNA measured in the control condition (without peptide treatment) for the different incubation times as 100% and presented as a mean+/−SEM from 3 or 5 assays in duplicate."}, "tropoelastin gene (ELN)": {"system": "tropoelastin gene (ELN)", "experiment": "ELN mRNA level by qRT-PCR in human dermal fibroblasts", "format": "cell-based", "details": "summary of Table 3", "method": "The peptide Acetyl-Val-Leu-Leu-Lys was incubated on human dermal fibroblasts cultured in vitro and the expression of the tropoelastin gene (ELN) was measured using a qRT-PCR method.\nas §1, with “were” for “were then”, “ELN” for “COL14A1”, “EEF1A 1” for “EEF1A1”, “condition. The results were calculated through the level of ELN mRNA measured in the control condition (without peptide treatment) as 100% and presented as a mean+/−SEM from 3 assays in duplicate.” for “condition.”"}, "[3]": {"system": "glutaredoxin-2 gene (GLRX2)", "experiment": "GLRX2 mRNA level by qRT-PCR in human dermal fibroblasts", "format": "cell-based", "details": "summary of Table 4", "method": "The peptide Acetyl-Val-Leu-Leu-Lys was incubated on human dermal fibroblasts cultured in vitro and the expression of the glutaredoxin-2 gene (GLRX2), involved in cellular anti-oxidative defenses) was measured using a qRT-PCR method.\nas §1, with “FCS” for “FCS but”, “were” for “were then”, “6” for “24 hours, 48 hours or 72”, “GLRX2” for “COL14A1”, “mRNAs” for “mRNAs in the different conditions”, “HPRT1 (hypoxanthine phosphoribosyltransferase I)” for “EEF1A1”\nThe results were calculated through the level of GLRX2 mRNA measured in the control condition (without peptide treatment) as 100% and presented as a mean+/−SEM from 3 assays in duplicated."}},
  "note": "Residues, ends and D or L forms follow the SMILES beside them.",
  "data": [
    {"compound": "Val-Leu-Leu-His (VLLH; printed: Val-Leu-Leu-His)", "values": [
      {"measurement": "proliferation of epithelial cells from rabbit cornea (in words)", "setting": "[1]", "value": "stimulate proliferation of epithelial cells from rabbit cornea"},
      {"measurement": "wound healing activity on injured rabbit cornea (in words)", "setting": "injured rabbit cornea", "value": "significant wound healing activity on injured rabbit cornea"}
    ]},
    {"compound": "sodium ascorbyl [reference compound]", "values": [
      {"measurement": "% of staining occupation (collagen type I immuno-staining)", "setting": "collagen type I; positive control at 20 μg/ml, 72 hours, human dermal fibroblasts, mean +/− SEM from 6 measures, control 10.68 +/− 1", "value": "18.01 +/− 1.07 (**) %"}
    ]},
    {"compound": "CC(=O)N[C@H](C(=O)N[C@@H](CC(C)C)C(=O)N[C@@H](CC(C)C)C(=O)N[C@@H](CCCCN)C(=O)O)C(C)C", "note": "[Acetyl-Val-Leu-Leu-Lys, N-Acetyl-Val-Leu-Leu-Lys-OH] (Ac-VLLK-OH)", "values": [
      {"measurement": "effect on level of collagen type I (in words)", "setting": "collagen type I; summary of Table 1", "value": "significantly increased the level of collagen type I"},
      {"measurement": "effect on level of COL14A1 gene expression (in words)", "setting": "[2]", "value": "specifically and significantly increased the level of COL14A1 gene expression"},
      {"measurement": "effect on level of ELN gene expression (in words)", "setting": "tropoelastin gene (ELN)", "value": "specifically and significantly increased the level of ELN gene expression"},
      {"measurement": "effect on level of GLRX2 gene expression (in words)", "setting": "[3]", "value": "specifically increased the level of GLRX2 gene expression"}
    ]}
  ]
}
